In patent publication US11707462B2, “Checkpoint kinase 1 (CHK1) inhibitors and uses thereof” (Boundless Bio, Inc., priority 2021, dated 2023) one finds IC50 data, which are given here for 21 compounds.

In general, IC50 refers to the concentration that gives 50% inhibition. Low values mean inhibition by little substance, high ones a need for much substance.

Test [1] has as its target T1, Full-length human Chk1 protein (Homo sapiens, UniProt O14757).
T1 construct: purchased Carna Biosciences, Inc. 02-117
T1 sequence (O14757 1-476): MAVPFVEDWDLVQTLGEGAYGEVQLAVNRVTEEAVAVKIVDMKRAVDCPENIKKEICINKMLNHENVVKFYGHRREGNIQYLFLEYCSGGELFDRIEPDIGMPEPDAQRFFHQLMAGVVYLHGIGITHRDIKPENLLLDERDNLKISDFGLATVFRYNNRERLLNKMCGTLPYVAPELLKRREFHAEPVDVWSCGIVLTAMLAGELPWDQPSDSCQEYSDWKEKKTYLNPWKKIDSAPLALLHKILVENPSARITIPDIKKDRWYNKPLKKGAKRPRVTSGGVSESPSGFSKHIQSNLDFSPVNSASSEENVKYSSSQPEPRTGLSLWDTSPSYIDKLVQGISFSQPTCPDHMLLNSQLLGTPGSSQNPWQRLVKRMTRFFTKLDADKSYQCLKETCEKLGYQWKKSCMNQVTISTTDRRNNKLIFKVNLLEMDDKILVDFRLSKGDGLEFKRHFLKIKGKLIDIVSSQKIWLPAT
Kind of test: Kinase HTRF biochemical assay (HTRF KinEASE), Chk1 enzyme activity. The settings on record: full-length human Chk1, ATP 1 mM, 60 minutes at room temperature. Summed up: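 Full-length human Chk1 (0.012 ng/μL) in buffer with 5 mM MgCl2 and 1 mM DTT, preincubated with compound 10 min at room temperature; reaction with 120 nM biotinylated STK substrate 1 and 1 mM ATP for 60 min at room temperature. HTRF detection via cryptate antibody/streptavidin-XL665; IC50 from 10-point duplicate curves.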
(Time-resolved FRET reads energy transfer from a long-lived donor to a nearby acceptor.)

A further test relates to p-CHK1 (Ser345). Kind of test: AlphaLISA SureFire Ultra p-CHK1 (Ser345) cellular assay in HT29 cells. Format: cell-based. The following applies: Homo sapiens, HT-29, 16 h at 37° C. As to the method:
Example B: AlphaLisa Cellular Assay
Compound activity in cells was measured using an AlphaLISA® SureFire® Ultra™ p-CHK1 (Ser345) assay (Perkin Elmer, catalog no. ALSU-PCHK1-A10K). HT29 cells were cultured in McCoy 5A medium with 10% FBS and 1% penicillin-streptomycin and seeded to 96-well plates (Corning, catalog no. 3599). Compounds were serially diluted in DMSO over a 10-point dose range with 3-fold dilution and to each well containing cells was added compound solution. Plates were centrifuged at 1000 rpm for 30 seconds. Plates were incubated at 37° C. for 16 h. Supernatant was removed by flicking the plate against a paper towel. Wells were washed once with PBS solution. To each well was added freshly prepared lysis buffer and plates were agitated on a plate shaker at 400 rpm for 30 min. The 96-well cell plates were centrifuged at 1500 rpm for 1 minute. From each well was transferred 10 μL of the lysates to a 384-well Optiplate™ (Perkin Elmer, catalog no. 6007290). To each well was added Acceptor Mix (5 μL) and the plates were sealed and wrapped in foil. Plates were agitated on a plate shaker for 2 minutes, then incubated at room temperature for 1 h. To each well was added Donor Mix (5 μL) and the plates were sealed and wrapped in foil. Plates were agitated on a plate shaker for 2 minutes, then incubated at room temperature for 1 h. AlphaLisa signal was read on an EnVision multimode plate reader (Perkin Elmer). Data were fit to dose-response curves using XLfit (IDBS, Surrey, UK) or Prism (GraphPad Software, La Jolla, Calif., US) to calculate IC50 values for each compound tested.
(Alpha assays give light when donor and acceptor beads are brought close together.)

As for `N#Cc1cnc(Nc2cc(-c3c(F)cccc3O[C@@H]3CC[C@@H](N)C3)[nH]n2)cn1` [Example 1-44, 5-((5-(2-(((1R,3R)-3-aminocyclopentyl)oxy)-6-fluorophenyl)-1H-pyrazol-3-yl)amino)pyrazine-2-carbonitrile], the IC50 in test [1] is at most 10 nM; in the test with p-CHK1 (Ser345), at most 50 nM.
With `COc1c(C)ccc(O[C@@H]2CC[C@H](N)C2)c1-c1cc(Nc2cnc(C#N)cn2)n[nH]1` [Example 4-1, 5-((5-(6-(((1R,3S)-3-aminocyclopentyl)oxy)-2-methoxy-3-methylphenyl)-1H-pyrazol-3-yl)amino)pyrazine-2-carbonitrile], the IC50 lay in the range of 100 to 500 nM in test [1] and 500 to 1000 nM in the test on p-CHK1 (Ser345).
As for `CN[C@H]1C[C@H](Oc2cccc(OC)c2-c2cc(Nc3cnc(C#N)cn3)n[nH]2)C1` [Example 1-16, 5-((5-(2-methoxy-6-((1r,3r)-3-(methylamino)cyclobutoxy)phenyl)-1H-pyrazol-3-yl)amino)pyrazine-2-carbonitrile], the figures for the IC50 (in test [1]; in the test with p-CHK1 (Ser345)) were 10 to 100 nM and at most 50 nM, respectively.
On to `N#Cc1cnc(Nc2cc(-c3ccccc3O[C@@H]3CC[C@H](N)C3)[nH]n2)cn1` [Example 1-52, 5-((5-(2-(((1R,3S)-3-aminocyclopentyl)oxy)phenyl)-1H-pyrazol-3-yl)amino)pyrazine-2-carbonitrile], for which the 50% inhibitory concentration (IC50) in test [1] was 10 to 100 nM; with p-CHK1 (Ser345), 100 to 500 nM.
For `COc1cccc(O[C@H]2C[C@H](N)C2)c1-c1cc(Nc2cnc(C#N)cn2)n[nH]1` [Example 1-5, 5-((5-(2-((1r,3r)-3-aminocyclobutoxy)-6-methoxyphenyl)-1H-pyrazol-3-yl)amino)pyrazine-2-carbonitrile] the same measures were at most 10 nM and at most 50 nM.
With `COc1cc(Cl)cc(O[C@H]2CC[C@H](N)CC2)c1-c1cc(Nc2cnc(C#N)cn2)n[nH]1` [Example 1-21, 5-((5-(2-(((1r,4r)-4-aminocyclohexyl)oxy)-4-chloro-6-methoxyphenyl)-1H-pyrazol-3-yl)amino)pyrazine-2-carbonitrile], the IC50 was at most 10 nM in test [1] and 50 to 100 nM in the test with p-CHK1 (Ser345).
Take `N#Cc1cnc(Nc2cc(-c3c(O[C@@H]4CC[C@H](N)C4)ccc(Cl)c3F)[nH]n2)cn1` [Example 3-19, 5-((5-(6-(((1R,3S)-3-aminocyclopentyl)oxy)-3-chloro-2-fluorophenyl)-1H-pyrazol-3-yl)amino)pyrazine-2-carbonitrile]: the IC50 in test [1] was 10 to 100 nM; in the test with p-CHK1 (Ser345), over 1000 nM.
As to `Cc1cccc(-c2cc(Nc3cnc(C#N)cn3)n[nH]2)c1O[C@@H]1CC[C@H](N)C1` [Example 3-12, 5-((5-(2-(((1R,3S)-3-aminocyclopentyl)oxy)-3-methylphenyl)-1H-pyrazol-3-yl)amino)pyrazine-2-carbonitrile], the IC50 (in test [1]; in the test on p-CHK1 (Ser345)) was over 1000 nM in each case.
As for `CN[C@@H]1CC[C@@H](Oc2cccc(F)c2-c2cc(Nc3cnc(C#N)cn3)n[nH]2)C1` [Example 1-43, 5-((5-(2-fluoro-6-(((1R,3R)-3-(methylamino)cyclopentyl)oxy)phenyl)-1H-pyrazol-3-yl)amino)pyrazine-2-carbonitrile], the IC50 was 10 to 100 nM in test [1] and at most 50 nM in the test with p-CHK1 (Ser345).
The like results for `CC(C)c1ccc(O[C@@H]2CC[C@H](N)C2)c(-c2cc(Nc3cnc(C#N)cn3)n[nH]2)n1` [Example 3-46, 5-((5-(3-(((1R,3S)-3-aminocyclopentyl)oxy)-6-isopropylpyridin-2-yl)-1H-pyrazol-3-yl)amino)pyrazine-2-carbonitrile] were, in that order, at most 10 nM and 50 to 100 nM.
For `CN[C@H]1C[C@H](Oc2cccc(F)c2-c2cc(Nc3cnc(C#N)cn3)n[nH]2)C1` [Example 2-5, 5-((5-(2-fluoro-6-((1r,3r)-3-(methylamino)cyclobutoxy)phenyl)-1H-pyrazol-3-yl)amino)pyrazine-2-carbonitrile] the same measures were 10 to 100 nM and 100 to 500 nM.
`CN[C@H]1C[C@H](Oc2ccccc2-c2cc(Nc3cnc(C#N)cn3)n[nH]2)C1` [Example 1-38, 5-((5-(2-((1r,3r)-3-(methylamino)cyclobutoxy)phenyl)-1H-pyrazol-3-yl)amino)pyrazine-2-carbonitrile]: the IC50 in test [1] was in the range of 10 to 100 nM; in the test on p-CHK1 (Ser345), 100 to 500 nM.
As for `COc1ccc(C)c(O[C@@H]2CC[C@H](N)C2)c1-c1cc(Nc2cnc(C#N)cn2)n[nH]1` [Example 4-3, 5-((5-(2-(((1R,3S)-3-aminocyclopentyl)oxy)-6-methoxy-3-methylphenyl)-1 H-pyrazol-3-yl)amino)pyrazine-2-carbonitrile], the IC50 in test [1] is 100 to 500 nM; with p-CHK1 (Ser345), over 1000 nM.
For the compound `Cc1ccc(O[C@@H]2CC[C@H](N)C2)c(-c2cc(Nc3cnc(C#N)cn3)n[nH]2)c1F` [Example 3-16, 5-((5-(6-(((1R,3S)-3-aminocyclopentyl)oxy)-2-fluoro-3-methylphenyl)-1H-pyrazol-3-yl)amino)pyrazine-2-carbonitrile], the IC50 in test [1] fell in the range of 10 to 100 nM; in the test on p-CHK1 (Ser345), 100 to 500 nM.
`N#Cc1cnc(Nc2cc(-c3ccccc3O[C@H]3CC[C@@H](N)C3)[nH]n2)cn1` [Example 2-1, 5-((5-(2-(((1S,3R)-3-aminocyclopentyl)oxy)phenyl)-1H-pyrazol-3-yl)amino)pyrazine-2-carbonitrile]: the IC50 in test [1] was 500 to 1000 nM; in the test on p-CHK1 (Ser345), over 1000 nM.
For `COc1cccc(O[C@H]2CC[C@H](N)CC2)c1-c1cc(Nc2cnc(C#N)cn2)n[nH]1` [Example 1-1, 5-((5-(2-(((lr,4r)-4-aminocyclohexyl)oxy)-6-methoxyphenyl)-1H-pyrazol-3-yl)amino)pyrazine-2-carbonitrile], the IC50 was at most 10 nM in test [1] and 50 to 100 nM in the test on p-CHK1 (Ser345).
For `[2H]C([2H])([2H])Oc1cccc(O[C@@H]2CC[C@H](N)C2)c1-c1cc(Nc2cnc(C#N)cn2)n[nH]1` [Example 3-15, 5-((5-(2-(((1R,3S)-3-aminocyclopentyl)oxy)-6-(methoxy-d3)phenyl)-1H-pyrazol-3-yl)amino)pyrazine-2-carbonitrile], the IC50 in test [1] was at most 10 nM; in the test on p-CHK1 (Ser345), at most 50 nM.
The like results for `COc1cc(F)cc(O[C@H]2C[C@H](N)C2)c1-c1cc(Nc2cnc(C#N)cn2)n[nH]1` [Example 1-14, 5-((5-(2-((1r,3r)-3-aminocyclobutoxy)-4-fluoro-6-methoxyphenyl)-1H-pyrazol-3-yl)amino)pyrazine-2-carbonitrile] were, in that order, at most 10 nM and at most 50 nM.
As to `Cc1ccc(O[C@H]2CC[C@H](N)CC2)c(-c2cc(Nc3cnc(C#N)cn3)n[nH]2)n1` [Example 1-56, 5-((5-(3-(((1r,4r)-4-aminocyclohexyl)oxy)-6-methylpyridin-2-yl)-1H-pyrazol-3-yl)amino)pyrazine-2-carbonitrile], the IC50 in test [1] was at most 10 nM; in the test with p-CHK1 (Ser345), 100 to 500 nM.
The like results for `CCCc1ccc(O[C@@H]2CC[C@H](N)C2)c(-c2cc(Nc3cnc(C#N)cn3)n[nH]2)n1` [Example 3-47, 5-((5-(3-(((1R,3S)-3-aminocyclopentyl)oxy)-6-propylpyridin-2-yl)-1H-pyrazol-3-yl)amino)pyrazine-2-carbonitrile] were, in that order, at most 10 nM and 50 to 100 nM.
Take `CN[C@@H]1CC[C@@H](Oc2ccc(F)c(F)c2-c2cc(Nc3cnc(C#N)cn3)n[nH]2)C1` [Example 3-1, 5-((5-(2,3-difluoro-6-(((1R,3R)-3-(methylamino)cyclopentyl)oxy)phenyl)-1H-pyrazol-3-yl)amino)pyrazine-2-carbonitrile]: the results for the IC50 (in test [1]; in the test with p-CHK1 (Ser345)) were 10 to 100 nM and 100 to 500 nM, respectively.
